# Results: paper PMC10223552 (Pharmaceuticals, 2023)
# Legend:
# [1] = tested on: BJ normal skin fibroblast; test: MTT cytotoxicity test, BJ normal fibroblasts; type: cell-based; settings: Homo sapiens, 48 h treatment
# Description: The studies were conducted on two breast cancer cell lines—MCF-7 (ER+PR+/HER2-negative) and MDA-MB-231 (ER/PR/HER2-negative) and human normal fibroblast cell line BJ. The cell lines were obtained from American Type Culture Collection (ATCC, Manassas, VA, USA) and were cultured at 37 °C in the presence of 5% CO2 in the atmosphere. The culture media (Eagle’s Minimum Essential Medium for MCF-7 and BJ, Leibovitz’s L-15 Medium for MDA-MB-231, Corning, NY, USA), was supplemented with 10% fetal bovine serum. The cell’s morphology was examined under a Nikon Eclipse Ti inverted phase contrast microscope (Nikon, Tokyo, Japan). The authenticity of tested cell lines was verified by short tandem repeat (STR) genotyping in the Department of Forensic Medicine (Medical University of Lublin, Lublin, Poland).
# Cell viability based on metabolic activity was evaluated with the MTT colorimetric test based on the ability of viable cells to cause the transformation of tetrazolium salts MTT (3-[4,5-dimethylthiazol-2-yl]-2,5)diphenyltetrazolium bromide) into purple formazan, by cellular dehydrogenases. The cells were seeded into 96-well plates at a concentration of 2 × 10^5 cells/mL. Once 70–80% confluency was reached, tested compounds were added: ADS10310 and ADS1017 in concentrations ranging from 1 to 250 µM or DMSO as the vehicle in control cultures for the next 48 h (max. DMSO concentration <0.5%). Doxorubicin was used for comparison as the standard chemotherapeutic agent used in breast cancer treatment. After 48 h of incubation cell cultures were supplemented with 20 µL of 5 mg/mL MTT (Thermofisher, Waltham, MA, USA) stock in PBS (Corning, NY, USA), and the incubation was continued for 4 h at 37 °C. […] The solution absorbency was measured at 570 nm, using a PowerWave™ xs microplate spectrophotometer (BioTek Instruments, Winooski, VT, USA). […] IC50 values were determined using the AAT Bioquest IC50 calculator (AAT Bioquest, Inc. Quest Graph™ EC50 Calculator. https://www.aatbio.com/tools/ec50-calculator) (accessed on 6 September 2022).
# gpH3R = biological target: T1, gpH3R (Cavia porcellus, UniProt Q9JI35); test: Ex vivo assay for histamine H3R antagonists on electrically stimulated guinea pig ileum
# T1 construct: from tissue; host or cells: isolated distal ileum of male guinea pigs
# Description: All newly synthesized compounds were evaluated as H3R antagonists/inverse agonists on the guinea pig ileum (gpH3R), stimulated electrically to induce contractions. The distinct affinity profile and species-dependent pharmacology of H3R ligands are known. […] Therefore, to compare species differences, all newly synthesized compounds were subjected to radioligand displacement assay in membrane fractions of HEK-293 cells stably expressing hH3R.
# (§1) Ex vivo assay for histamine H3R and H1R antagonists were measured on the isolated guinea pig ileum stimulated to contractions by histamine. The pA2-values were calculated according to Arunlakshana and Schild. The radioligand-displacement binding assay was performed in membrane fractions of HEK-293 cells stably expressing hH3R. Cell cultivation and membrane preparation was performed according to Kottke et al.. The Ki values were calculated from the IC50 values using the Cheng–Prusoff equation [37]. The statistical calculations were performed on –log(Ki). […] The inhibitory activities of novel ADS compounds were assessed in spectrophotometric Ellman’s assay using AChE from electric eel (eeAChE) and BuChE from horse serum (eqBuChE).
# 3. Pharmacological assay results.
# 3.1. Ex vivo assay for histamine H3R receptor antagonists on guinea pig ileum.
# Male guinea pigs, weighing 300-400 g were euthanized by a blow to the neck. Following this, a 20-30 cm length of the distal ileum, apart from the terminal 5 cm was rapidly removed and placed in phosphate buffer at room […]
# indomethacin (Sigma-Aldrich, St. Louis, MO, USA) (1·10-6 mol/L). The intraluminal content was rinsed and the isolated intestine was cut into 1.5-2 cm segments. The preparations were mounted between two platinum electrodes […]
# load of 1.0 g (Hugo Sachs Hebel-Messvorsatz (Tl-2)/HF-modem; Hugo Sachs Elektronik, Hugstetten, Germany) connected to a pen recorder (Kipp & Zonen BD41, Delft, Holland). During an equilibration period of 60 min, the Krebs buffer was changed every 10 min. The preparations were then continuously stimulated at 15-20 V at a frequency of 0.1 Hz for a duration of 0.5 ms, with rectangular-wave electrical pulses (Grass Stimulator S-88; Grass Instruments Co., Quincy, Massachusetts, USA). […] Five minutes […]
# before (R)-(−)-α-methylhistamine (RAMH) (Toronto Research Chemicals Inc., North York, Canada), […]
# added. The first cumulative concentration-response curve was determined to RAMH (10 nM – 10 mM) at an […]
# The second to fourth curve was measured against increasing antagonist concentration (incubation time 20 min). The pA2-values were calculated according to Arunlakshana and Schild. [Br J Pharmacol Chemother. […] Statistical analysis was carried out with the Students’ t-test. In all tests, a p<0.05 was considered statistically significant. The pA2 values were compared with the affinity of thioperamide (Sigma-Aldrich, St. Louis, MO, USA).
# gpH1R = biological target: T2, gpH1R (Cavia porcellus, UniProt P31389); test: Ex vivo assay for histamine H1R antagonists on guinea pig ileum stimulated by histamine (+atropine); settings: gpH1R +Atropine pA2 ± sem, isolated guinea pig ileum, vs histamine, 0.05 µM atropine
# T2 construct: from tissue; host or cells: isolated distal ileum of male guinea pigs
# Description: A second histamine receptor located in the guinea pig ileum is H1R. The antagonistic effect at H1R was measured on the isolated guinea pig ileum stimulated to contractions by histamine. To eliminate the impact of muscarinic receptors located on the tested tissue, 0.05 µM of atropine was added to the Krebs buffer.
# as §1
# 3.2 Ex vivo assay for histamine H1R receptor antagonists on guinea pig ileum.
# Male guinea pigs, weighing 300-400 g were euthanized by a blow to the neck. A 20-30 cm length of the distal ileum, apart from the terminal 5 cm was rapidly removed and placed in phosphate buffer at room temperature (pH […]
# Aldrich, St. Louis, MO, USA) (1·10-6 mol/L). The intraluminal content was rinsed and the isolated intestine was cut into 1.5-2 cm segments. The preparations were mounted isotonically in a 20 mL organ bath filled with Krebs […]
# a constant load of 0.5 g (Hugo Sachs Hebel-Messvorsatz (Tl-2)/HF-modem; Hugo Sachs Elektronik, Hugstetten, Germany) connected to a pen recorder (Kipp & Zonen BD41, Delft, Holland). During an equilibration period of 40 min, the Krebs buffer was changed every 10 min. The first cumulative concentration-response curve was determined to histamine (Sigma-Aldrich, St. Louis, MO, USA) (10 nM - 10 mM) at increasing concentration spaced by three or 3.3-fold. The second to the fourth (or fifth) curve was measured in the presence of an increasing concentration of antagonist (incubation time 10 min). The pA2-values were calculated according to Arunlakshana and Schild. [Br J Pharmacol Chemother. […] Statistical analysis was carried out with the Students’ t-test. In all tests, a p<0.05 was considered statistically significant. The pA2 values were compared with the affinity
# T1 sequence (Q9JI35 whole entry): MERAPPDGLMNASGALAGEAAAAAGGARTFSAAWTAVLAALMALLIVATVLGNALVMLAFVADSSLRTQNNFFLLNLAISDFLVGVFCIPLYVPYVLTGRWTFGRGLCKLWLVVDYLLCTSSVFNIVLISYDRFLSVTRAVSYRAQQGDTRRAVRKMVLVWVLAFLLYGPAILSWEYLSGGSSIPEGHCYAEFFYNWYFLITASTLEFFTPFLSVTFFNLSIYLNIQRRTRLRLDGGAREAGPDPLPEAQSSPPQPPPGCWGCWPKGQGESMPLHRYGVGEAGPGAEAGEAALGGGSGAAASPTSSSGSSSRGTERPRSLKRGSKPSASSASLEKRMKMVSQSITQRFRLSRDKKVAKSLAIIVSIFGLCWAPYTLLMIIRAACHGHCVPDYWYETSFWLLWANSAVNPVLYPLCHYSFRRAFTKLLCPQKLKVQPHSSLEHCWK
# T2 sequence (P31389 whole entry): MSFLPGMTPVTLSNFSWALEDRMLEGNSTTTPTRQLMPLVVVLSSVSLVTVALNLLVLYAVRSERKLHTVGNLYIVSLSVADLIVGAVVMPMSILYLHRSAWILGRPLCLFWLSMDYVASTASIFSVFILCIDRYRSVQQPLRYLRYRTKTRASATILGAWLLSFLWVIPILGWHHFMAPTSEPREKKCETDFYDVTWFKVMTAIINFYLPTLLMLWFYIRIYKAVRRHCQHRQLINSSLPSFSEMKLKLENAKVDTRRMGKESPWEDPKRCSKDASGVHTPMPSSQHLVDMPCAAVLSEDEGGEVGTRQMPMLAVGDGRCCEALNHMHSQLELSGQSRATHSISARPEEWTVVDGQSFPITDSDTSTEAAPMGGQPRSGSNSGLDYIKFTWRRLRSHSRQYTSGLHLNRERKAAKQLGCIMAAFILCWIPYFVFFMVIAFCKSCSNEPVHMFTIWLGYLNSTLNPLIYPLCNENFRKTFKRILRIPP
structure (smiles),measurement,setting,value
N=C(N)N(CCCCN1CCN(CCCCCCCOc2ccccc2)CC1)Cc1ccccc1 [ADS1017],IC50,[1],39 µM
same,gpH3R pA2 ± sem,"gpH3R; isolated guinea pig ileum, vs RAMH, 20 min",8.21 ± 0.15
Cl.Cl.N=C(NCCCCc1ccc(Cl)cc1)NCCCCN1CCCCC1 [ADS10310],Kb,gpH1R,0.339 µM
same,IC50,[1],231 µM
same,Kb,gpH3R,0.0191 µM
